Test system: SARS-CoV-2
Experiment: microbe, parasite or virus in culture
Settings: Severe acute respiratory syndrome coronavirus 2, Vero C1008, 48 h

Compound	IC50 [µM]	IC50 (read-out: pIC50 (converted)) [µM]
C#C[C@]1(OC(C)=O)CC[C@H]2[C@@H]3CCC4=CC(=O)CC[C@@H]4[C@H]3CC[C@@]21C [NORETHINDRONE ACETATE]	> 20	> 20
CCOP(=O)(Cc1ccc(-c2nc3ccccc3s2)cc1)OCC [FOSTEDIL]	> 20	> 20
O=C1C(Cl)=C(Cl)C(=O)c2c(O)ccc(O)c21	> 20	> 20
COc1cc2c(c(OC)n1)[C@]1(O)[C@H](O)[C@H](CN(C)C)[C@@H](c3ccccc3)[C@]1(c1ccc(C#N)cc1)O2 [ZOTATIFIN]	> 20	> 20
C=CC(=O)N[C@@H]1CN(c2nc(Nc3cn(C)nc3OC)c3ncn(C)c3n2)C[C@H]1F [MAVELERTINIB]	> 20	> 20
NCC(O)CC(=O)O (stereo not drawn) [GAMMA-AMINO-BETA-HYDROXYBUTYRIC ACID]	> 20	> 20
Cc1cc2c(F)c(Oc3ncnn4cc(OC[C@@H](C)OC(=O)[C@H](C)N)c(C)c34)ccc2[nH]1 [BRIVANIB ALANINATE]	> 20	> 20
Cc1cc(CCCCCCCOc2ccc(C3=NCCO3)cc2)on1 [DISOXARIL]	> 20	> 20
Cc1ncc(CO)c(C=O)c1O [PYRIDOXAL]	> 20	> 20
CN[C@@H](C)[C@H](O)c1ccccc1 [EPHEDRINE]	> 20	> 20
O=C(Nc1ccccc1Br)N[C@H]1CCN(c2ccc(C(F)(F)F)cn2)C1	> 20	> 20
Cc1cccc(C)c1NC(=O)c1cc(S(N)(=O)=O)c(Cl)cc1O [XIPAMIDE]	> 20	> 20
CC(=O)NC(Cc1ccccc1)C(=O)O (centres undefined) [AFALANINE]	> 20	> 20
CCN(CC)CCNC(=O)c1c(C)[nH]c(/C=C2\C(=O)Nc3ccc(F)cc32)c1C [SUNITINIB]	> 20	> 20
CONC(=O)c1ccccc1Nc1cc(Nc2cc(C)nn2C(C)C)ncc1Cl [GSK-2256098]	> 20	> 20
O=C(O)c1c(O)c(-c2ccccc2)nc2ccccc12 [OXYCINCHOPHEN]	> 20	> 20
COCC(=O)Nc1cc(COc2ccc(NC(=O)Nc3cc(C(C)(C)C)nn3-c3ccc(C)cc3)c3ccccc23)ccn1 [JNJ-49095397]	> 20	> 20
CCn1cc(C(=O)O)c(=O)c2cnc(N3CCNCC3)nc21 [PIPEMIDIC ACID]	> 20	> 20
CC(C)(Oc1ccc(Cl)cc1)C(=O)O [CLOFIBRIC ACID]	> 20	> 20
C[C@@H](N)Cc1ccccc1 [LEVAMFETAMINE]	> 20	> 20
COc1c2c(cc3c1OCO3)CC[N+](C)=C2 [COTARNINE]	> 20	> 20

Compound	IC50 [µM]	IC50 (read-out: pIC50 (converted)) [µM]
CCOC(=O)[C@H](C)NP(=O)(COCCn1cnc2c(NC3CC3)nc(N)nc21)N[C@@H](C)C(=O)OCC [RABACFOSADINE]	> 20	> 20
CC(=O)N[C@@H]1[C@@H](O)[C@@H](O)[C@@H](CO)O[C@@H]1O	> 20	> 20
C=CC(=O)Nc1cc2c(Nc3ccc(F)c(Cl)c3)ncnc2cc1OCCCN1CCOCC1 [CANERTINIB]	> 20	> 20
CN[C@H]1[C@H](O)[C@H](O[C@@H]2[C@@H](O)[C@H](O[C@H]3O[C@H]([C@@H](C)O)[C@@H](O)[C@H](O)[C@H]3N)[C@@H](N)C[C@H]2N)OC[C@@]1(C)O	> 20	> 20
C/C(=N\N=C(/S)N/N=C(\S)Nc1ccccc1Cl)c1ccccn1	> 20	> 20
CCn1cc(C(=O)O)c(=O)c2cc(F)c(N3CCNCC3)cc21 [NORFLOXACIN]	> 20	> 20
CNCCc1ccc(O)c(O)c1 [DEOXIEPINEPHRINE]	> 20	> 20
Nc1cccc2c1C(=O)c1cccc(N)c1C2=O	> 20	> 20
CCCCNC(=O)NS(=O)(=O)c1ccc(C)cc1 [TOLBUTAMIDE]	> 20	> 20
N#CC(c1ccc(Cl)cc1)c1ccc(-n2ncc(=O)[nH]c2=O)cc1Cl (centres undefined) [CLAZURIL]	> 20	> 20
CC1=C(C(=O)O)N2C(=O)[C@@H](NC(=O)[C@H](N)c3ccccc3)[C@H]2SC1 [CEPHALEXIN ANHYDROUS]	> 20	> 20
CC(=O)/N=c1/sc(S(N)(=O)=O)nn1C [METHAZOLAMIDE]	> 20	> 20
O=C(O)CN1C(=O)c2cccc3cccc(c23)C1=O [ALRESTATIN]	> 20	> 20
CCC(C/C=C/c1ccccc1)(c1ccccc1)N(C)CC1CC1 (centres undefined) [IGMESINE]	> 20	> 20
NC(C(=O)O)C(O)c1ccc(O)c(O)c1 (centres undefined)	> 20	> 20
C[C@@H]1CCO[C@H]2Cn3cc(C(=O)NCc4ccc(F)cc4F)c(=O)c(O)c3C(=O)N12 [DOLUTEGRAVIR]	> 20	> 20
Cc1ccccc1C(=O)Nc1ccc(C(=O)N2CCCC(O)c3cc(Cl)ccc32)c(C)c1 (centres undefined) [TOLVAPTAN]	> 20	> 20
Oc1cc2c(cc1O)[C@@H]1c3ccc(O)c(O)c3OC[C@]1(O)C2 [HEMATOXYLIN]	> 20	> 20
COc1ccccc1N1CCN(CC(O)COc2cc(OC)c(OC)c(OC)c2)CC1 (centres undefined) [ENCIPRAZINE]	> 20	> 20
NC(CSSCC(N)C(=O)O)C(=O)O (centres undefined)	> 20	> 20
N[C@H]1CONC1=O [LEVCYCLOSERINE]	> 20	> 20

Compound	IC50 [µM]	IC50 (read-out: pIC50 (converted)) [µM]
COc1ccc(OC)c(C(O)C(C)N)c1 (centres undefined) [METHOXAMINE]	> 20	> 20
[O-][n+]1ccccc1S [PYRITHIONE]	> 20	> 20
COC(=O)Nc1nc2cc(C(=O)c3ccc(F)cc3)ccc2[nH]1 [FLUBENDAZOLE]	> 20	> 20
CO[C@H]1C[C@@H]2CC[C@@H](C)[C@@](O)(O2)C(=O)C(=O)N2CCCC[C@H]2C(=O)O[C@H]([C@H](C)C[C@@H]2CC[C@H](n3cnnn3)[C@H](OC)C2)CC(=O)[C@H](C)/C=C(/C)[C@@H](O)[C@@H](OC)C(=O)[C@H](C)C[C@H](C)\C=C/C=C\C=C/1C	> 20	> 20
CN1CCN(CCCN2c3ccccc3Sc3ccc(Cl)cc32)CC1 [PROCHLORPERAZINE]	> 20	> 20
O=C(NC(Cc1cc(=O)[nH]c2ccccc12)C(=O)O)c1ccc(Cl)cc1 (centres undefined) [REBAMIPIDE]	> 20	> 20
O=C(NCCO[N+](=O)[O-])c1cccnc1 [NICORANDIL]	> 20	> 20
COc1ccc2cc3[n+](cc2c1OC)CCc1cc2c(cc1-3)OCO2 [BERBERINE]	> 20	> 20
CCCCCCCCCCCCCC[C@@H](O)[C@@H](O)[C@@H](N)CO [PHYTOSPHINGOSINE]	> 20	> 20
COc1cc2[nH]c(C)c(CCN3CCN(c4ccccc4OC)CC3)c2cc1OC [MILIPERTINE]	> 20	> 20
COc1ccc(Cc2nccc3cc(OC)c(OC)cc23)cc1OC [PAPAVERINE]	> 20	> 20
CCO[C@@H](Cc1ccc(OCCc2ccc(OS(C)(=O)=O)cc2)cc1)C(=O)O [TESAGLITAZAR]	> 20	> 20
C[N+]1(C)C[C@H](O)C[C@H]1C(=O)O	> 20	> 20
OCCOCCN1CCN(C(c2ccccc2)c2ccc(Cl)cc2)CC1 (centres undefined) [HYDROXYZINE]	> 20	> 20
C[C@]12CC[C@H]3C(=CCc4cc(O)ccc43)[C@@H]1CCC2=O [EQUILIN]	> 20	> 20
N#C[C@@H]1C[C@@H]2C[C@@H]2N1C(=O)[C@@H](N)C12CC3CC(CC(O)(C3)C1)C2 [SAXAGLIPTIN ANHYDROUS]	> 20	> 20
CN1CCN2c3ccccc3Cn3cccc3[C@@H]2C1	> 20	> 20
CCCCCCCOC(=O)NC1=NC(=O)N([C@H]2C[C@H](O)[C@@H](CO)O2)CN1 [KP-1461]	> 20	> 20
CC1=C(O)C(=O)C=C2C1=CC=C1C3(C)CC[C@@]4(C)CC[C@@](C)(C(=O)O)C[C@H]4[C@]3(C)CC[C@@]21C (some centres undefined)	> 20	> 20
c1ccc([C@@H]2CN3CCSC3=N2)cc1 [DEXAMISOLE]	> 20	> 20
